Measurements reported in patent US20180194836A1, “PREVENTION OF METASTASIS AND RECURRENCE AFTER PRIMARY CANCER TREATMENT” (ENCYT TECHNOLOGIES, INC., priority 2014, published 2018).

How the values were obtained:
[1] = system: SW-620 cells; experiment: SW-620 cells treated with cytokines then Irinotecan; flow cytometry for stem cell markers and apoptosis; type: cell-based, human; conditions: SW-620, preliminary data
Description: SW-620 cells, a human colorectal adenocarcinoma cell line, were treated with cytokines alone or in combination including IL-6, TGF-beta, HGF, PGE-2, IL-6+PGE-2 and TGF-beta+HGF for 24 hours and compared to untreated SW-620 cells as control, Some treated and untreated SW-620 cells were then exposed to 2 μM Irinotecan for 36 hours at which point cells were harvested for flow cytometry to assess for stem cell markers and markers of apoptosis. The percentage of CD44+CD133− cells following treatment with various cytokine and cytokine cocktails is depicted in FIG. 10. Compared to non-cytokine treated cells, combinations with IL-6+PGE-2, and TGF-beta+HGF increased the number and percentage of cells that were CD44+CD133− as shown in FIG. 10 (stem cells). FIG. 11 depicts the percentage of CD44+CD133− cells following treatment with various cytokines and Irinotecan. Treatment with IL-6+Irinotecan and TGF+Irinotecan increased the percentage of CD44+CD133− stem cells to 2% (from zero in non-treated control cells) as shown in FIG. 11. FIG. 12 depicts the percentage of CD44+CD133− cells following treatment with various cytokine cocktails and Irinotecan. A combination of TGF+HGF+Irinotecan increased the percentage of CD44+CD133− stem cells to 2% (from zero in non-treated control cells) as shown in FIG. 12. […]

[2] = system: HCT-15 cells; experiment: Cell proliferation / cell subpopulations in HCT-15 cell line after cytokines and cytokine cocktails (flow cytometry); type: cell-based; parameters: unit not given here; conditions: HCT-15 cells after exposure to cytokine combinations
Description: Cell proliferation of cancer and/or cancer stem cell populations with selected cytokine and cytokine cocktails on serum starved colorectal carcinoma cell lines. Prior to incubation cells were stained with a cell proliferation dye, which binds stoichiometrically to DNA. Intensity of the dye decreased upon cell division thereby signifying cell proliferation.
Two authenticated colorectal carcinoma cell lines, HCT-15 and SW-620, were used to test the effect of different cytokine and cytokine cocktails, including IL-6, HGF, PGE-2, TGF-beta and MMP-9 alone or in a cocktail, on cell proliferation, EMT and cancer stem cell populations.
In order to evaluate stem cell populations, cells were synchronized by serum starvation for 72 hours before seeding in 24-well ultra low attachment plates at a density of 200,000 cells/well. Cells were then detached using trypsin EDTA and washed twice with PBS (without Calcium or Magnesium). A cell proliferation dye, eFluor 450 was used to label cells. Cells were grown with DMEM with high glucose and 2 mM Gluatmine without FBS in the presence of selected cytokines and or cytokine cocktails over a period of 72 hrs.
Cells that were grown in 5% serum were stained with the following antibody cocktails: CD24FITC, CD44PE and CD24FITC, CD133PE. Cells were also stained with a fixable live/dead efluor dye 506 to exclude dead cells. In parallel, cells were grown in the presence of 5% serum to evaluate CSC markers.
(§1) Cells were fixed in 1% Paraformaldehyde for 15 minutes at room temperature and run on Flowsight using 2 lasers (488 nm at 60 mW and 405 nm at 30 mW). For cell lines, 100,000 events were collected whilst for enriched CTCs all events were collected until the sample finished.
Flow cytometry data was analysed using IDEAS software. Double events, out of focus events, CD45PerePCy5.5 positive cells (in case of enriched CTCs), dead cells and non-nucleated events were eliminated from the fluorescence analysis of the cell population. FIG. 2 depicts scatterplots of flow cytometry experiments showing the enriched CTCs stained with an antibody containing CD44 after treatment with various cytokines and cytokine cocktails. Hoescht 33258 dye was used to stain nuclei in the case of the HCT-15 cell line and enriched CTCs. All experiments were stained with a fixable live/dead dye eFluor 506 to exclude dead cells.
To evaluate which cocktail combinations were most likely involved in cell proliferation of presumed quiescent stem cells or de-differentiated stein cell-like cells, four cytokines, IL-6, HGF, PGB-2 and TO were added singly or in pairs to HCT-15 cells. Results of combinations that influenced cell proliferation of HCT-15 cells in culture are presented. […] FIG. 4 depicts cell proliferation of subpopulations in the HCT-15 cell line after exposure to various cytokines and cytokine cocktails.

[3] = system: enriched circulating tumour cells (CTCs); experiment: Cell proliferation / cancer stem cell markers in enriched CTCs from a patient with metastatic prostate cancer cultured with cytokine cocktails; type: cell-based, human; conditions: for EpCAM+CD133+ gated subpopulation / EpCAM+CD133− gated subpopulation / EpCAM−CD133+ gated subpopulation / EpCAM−CD133− gated subpopulation: enriched CTCs (metastatic prostate cancer patient) cultured with cytokine or cytokine cocktail, flow cytometry, antibody cocktail EpCAM A488, CD133 PE, CD45 PerCPCy5.5, percentages of gated subpopulations; for proliferation of EpCAM-CD44+ cell sub-population: no serum, no cytokines 2.2%; for Cell population EpCAM+CD44+ / Cell population EpCAM+CD44− / Cell population EpCAM−CD44+ / Cell population EpCAM−CD44−: metastatic prostate cancer patient, cell culture period 8 days
Description: as §1
Flow cytometry data was analysed using IDEAS software. Double events, out of focus events, CD45PerePCy5.5 positive cells (in case of enriched CTCs), dead cells and non-nucleated events were eliminated from the fluorescence analysis of the cell population. FIG. 2 depicts scatterplots of flow cytometry experiments showing the enriched CTCs stained with an antibody containing CD44 after treatment with various cytokines and cytokine cocktails.
In order to determine if selected cytokines influence cell proliferation of circulating tumour cells (CTCs), whole blood was collected from a patient with metastatic prostate cancer. Circulating tumour cells were enriched from whole blood using RosetteSep CTC Enrichment cocktail. Briefly, samples of whole blood were incubated with RosetteSep (anti CD 56 for 20 minutes at room temperature). Phosphate buffered saline containing 2% Fetal Bovine Serum was added to the samples and layered on a Ficoll Paque gradient. After centrifugation, the supernatant which contained CTCs was washed twice with PBS containing 2% FBS. Equal volumes of the cell suspension were seeded into a 24-well ultra-low attachment polystyrene plate. […] FIG. 3 depicts scatterplots of flow cytometry experiments enriched CTCs stained with an antibody containing CD133 after treatment with various cytokines and cytokine cocktails.
FIG. 6 depicts cell proliferation of subpopulations in cultured CTCs after exposure to various cytokines and cytokine cocktails. Cells were stained using an antibody containing CD44 PE.
Cells were stained using an antibody containing CD133 PE.

[4] = early use after coronary artery bypass surgery; cited from earlier work
[5] = system: breast cancer; conditions: perioperative, 9-18 month period of greatest risk, compared to other analgesics or NSAIDs post-operatively; cited from earlier work
[6] = system: B16 amelanotic melanoma model; conditions: cited from earlier work
[7] = system: enriched circulating tumour cells (CTCs); experiment: Enriched CTCs from a patient with colorectal cancer cultured with IL-6, IL-8 or PDGFBB (EpCAM/CD133 flow cytometry); type: cell-based, human; conditions: for EpCAM+CD133+ gated subpopulation / EpCAM+CD133− gated subpopulation / EpCAM−CD133+ gated subpopulation / EpCAM−CD133− gated subpopulation: colorectal cancer patient
From the text: A blood sample was collected from a patient with colorectal cancer six days after surgery, Blood samples were enriched for CTCs using RosetteSep CD 56 kit according to standard protocol. Prior to cell culture, cells were stained with the following antibody cocktail: EpCAM A488, CD133PE, CD 45 PerCP Cy5.5, and Lgr5-PE-Vio770. Cells were either cultured in low attachment well plates without cytokines (control cells) or with three different cytokines (IL-6, IL-8 or PDGFBB).
Flow cytometry data was analysed using IDEAS software. Double events, out of focus events, CD45PercPCy5.5 positive cells, dead cells and non-nucleated events were eliminated from the fluorescence analysis of the cell population. Hoescht 33258 dye was used to stain nuclei of enriched CTCs. All experiments were stained with a fixable live/dead dye eFluor 506 to exclude dead cells.

| Molecule | CD24+CD44− cell subpopulation [2] | CD44+CD24+ cell subpopulation [2] | CD44+CD24− cell subpopulation [2] | CD44−CD24− cell subpopulation [2] | EpCAM+CD133+ gated subpopulation [3] [%] | EpCAM+CD133− gated subpopulation [3] [%] | EpCAM−CD133+ gated subpopulation [3] [%] | EpCAM−CD133− gated subpopulation [3] [%] | Cell population EpCAM+CD44+ ([3]; enriched CTCs) | Cell population EpCAM+CD44− ([3]; enriched CTCs) | Cell population EpCAM−CD44+ ([3]; enriched CTCs) | Cell population EpCAM−CD44− ([3]; enriched CTCs) | EpCAM+CD133+ gated subpopulation [7] | EpCAM+CD133− gated subpopulation [7] | EpCAM−CD133+ gated subpopulation [7] | EpCAM−CD133− gated subpopulation [7] | further results |
| --- | --- | --- | --- | --- | --- | --- | --- | --- | --- | --- | --- | --- | --- | --- | --- | --- | --- |
| CCCCC[C@H](O)/C=C/[C@H]1[C@H](O)CC(=O)[C@@H]1C/C=C\CCCC(=O)O [PGE-2, prostaglandin E2, reference compound] | 58.7 | 7.3 | 0.61 | 32.4 | 10.4 | 0 | 86.7 | 2.61 | 27.2 percentage of gated cells | 1.75 percentage of gated cells | 4.23 percentage of gated cells | 65.5 percentage of gated cells | – | – | – | – | enrichment of Irinotecan treated cells for cancer stem cells above non-cytokine treated controls [1]: enriched; proliferation of EpCAM-CD44+ cell sub-population ([3]; enriched CTCs, 8 days culture): 4.23 % gated |
| CC(=O)Oc1ccccc1C(=O)O [aspirin] | – | – | – | – | – | – | – | – | – | – | – | – | – | – | – | – | survival compared to no aspirin [4]: superior survival |
| O=C(c1ccccc1)c1ccc2n1CCC2C(=O)O (stereo not shown) [ketorolac] | – | – | – | – | – | – | – | – | – | – | – | – | – | – | – | – | reduction in relapses [5]: 5 fold |
| CCCCC[C@H](O)/C=C/[C@@H]1[C@H]2C/C(=C/CCCC(=O)O)O[C@H]2C[C@H]1O [prostacyclin] | – | – | – | – | – | – | – | – | – | – | – | – | – | – | – | – | hepatic metastases [6]: complete elimination; pulmonary metastases [6]: reduction |
| HGF: Hepatocyte Growth Factor, cytokine added to cultured cancer cells | 58.6 | 3.29 | 0.31 | 35.9 | 17.2 | 0.2 | 80.8 | 1.58 | 16.8 percentage of gated cells | 4.89 percentage of gated cells | 2.12 percentage of gated cells | 74.9 percentage of gated cells | – | – | – | – | – |
| IL-6: cytokine Interleukin 6 added to cultured cancer cells | 49.1 | 5.63 | 1.35 | 43.2 | 23.5 | 0 | 74.7 | 1.46 | 35.6 percentage of gated cells | 2.66 percentage of gated cells | 6.14 percentage of gated cells | 55 percentage of gated cells | 0.1 percentages of gated subpopulations | 2.98 percentages of gated subpopulations | 0.12 percentages of gated subpopulations | 90.5 percentages of gated subpopulations | enrichment of Irinotecan treated cells for cancer stem cells above non-cytokine treated controls [1]: enriched; increase in the EpCAM+CD133− subpopulation (significance, p<0.05) ([7]; compared to control): statistically significant; percentage of cells positive for both EpCAM and CD44 ([3]; enriched CTCs, 8 days culture): highest; proliferation of EpCAM-CD44+ cell sub-population ([3]; enriched CTCs, 8 days culture): 6.14 % gated |
| Il-8: cytokine IL-8 added to cultured CTCs | – | – | – | – | – | – | – | – | – | – | – | – | 0.13 percentages of gated subpopulations | 2.51 percentages of gated subpopulations | 0.09 percentages of gated subpopulations | 90.8 percentages of gated subpopulations | – |
| PDGFBB: Platelet derived growth factor BB added to cultured CTCs (protein, UniProt P01127 82-190, looked up, BB homodimer, Platelet derived growth factor BB added to cultured CTCs) Platelet-derived growth …: SLGSLTIAEPAMIAECKTRTEVFEISRRLIDRTNANFLVWPPCVEVQRCSGCCNNRNVQCRPTQVQLRPVQVRKIEIVRKKPIFKKATVTLEDHLACKCETVAAARPVT | – | – | – | – | – | – | – | – | – | – | – | – | 0.18 percentages of gated subpopulations | 2.29 percentages of gated subpopulations | 0.1 percentages of gated subpopulations | 90.5 percentages of gated subpopulations | – |
